Test results as given in ChEMBL document CHEMBL4342420, “Discovery of AM-6494: A Potent and Orally Efficacious β-Site Amyloid Precursor Protein Cleaving Enzyme 1 (BACE1) Inhibitor with in Vivo Selectivity over BACE2” (J Med Chem, 2020).

Experiments:
[1] = Stability in human liver microsomes at 1 uM measured after 30 mins in presence of NADPH; type: ADME, Microsome; details: read-out: Stability
[2] = Stability in rat liver microsomes at 1 uM measured after 30 mins in presence of NADPH; type: ADME, Microsome; details: read-out: Stability
[3] = Free plasma concentration in depilated mouse at 10 mg/kg, po administered once daily for 13 days measured 24 hrs post-last dose; type: ADME, organism-based; details: in vivo
[4] = Free plasma concentration in depilated mouse at 30 mg/kg, po administered once daily for 13 days measured 24 hrs post-last dose; type: ADME, organism-based; details: in vivo
[5] = Free plasma concentration in depilated mouse at 120 mg/kg, po administered once daily for 13 days measured 24 hrs post-last dose; type: ADME, organism-based; details: in vivo
[6] = Oral bioavailability in rat at 3 mg/kg; type: ADME, organism-based; details: in vivo
[7] = Stability in monkey liver microsomes at 0.5 uM measured after 30 mins in presence of NADPH; type: ADME, Macaca mulatta, Microsome; details: rhesus monkey, read-out: Stability
[8] = Oral bioavailability in cynomolgus monkey at 3 mg/kg; type: ADME, organism-based, Macaca fascicularis; details: in vivo
[9] = Half life in rat at 1 mg/kg, iv; type: ADME, organism-based; details: in vivo
[10] = AUCt in cynomolgus monkey at 3 mg/kg, po; type: ADME, organism-based, Macaca fascicularis; details: in vivo
[11] = Clearance in rat at 1 mg/kg, iv; type: ADME, organism-based; details: in vivo
[12] = Clearance in Beagle dog at 1 mg/kg, iv; type: ADME, organism-based, Canis lupus familiaris; details: in vivo
[13] = Half life in Beagle dog at 1 mg/kg, iv; type: ADME, organism-based, Canis lupus familiaris; details: in vivo
[14] = Volume of distribution at steady state in rat at 1 mg/kg, iv; type: ADME, organism-based; details: in vivo, read-out: Vdss
[15] = Oral bioavailability in Beagle dog at 10 mg/kg; type: ADME, organism-based, Canis lupus familiaris; details: in vivo
[16] = Stability in dog liver microsomes at 0.5 uM measured after 30 mins in presence of NADPH; type: ADME, Canis lupus familiaris, Microsome; details: read-out: Stability
[17] = Clearance in monkey at 1 mg/kg, iv; type: ADME, organism-based, Macaca mulatta; details: rhesus monkey, in vivo
[18] = Volume of distribution at steady state in Beagle dog at 1 mg/kg, iv; type: ADME, organism-based, Canis lupus familiaris; details: in vivo, read-out: Vdss
[19] = Volume of distribution at steady state in monkey at 1 mg/kg, iv; type: ADME, organism-based, Macaca mulatta; details: rhesus monkey, in vivo, read-out: Vdss
[20] = Free plasma concentration in depilated mouse at 100 mg/kg, po administered once daily for 13 days measured 24 hrs post-last dose; type: ADME, organism-based; details: in vivo
[21] = AUCt in rat at 3 mg/kg, po; type: ADME, organism-based; details: in vivo
[22] = Half life in monkey at 1 mg/kg, iv; type: ADME, organism-based, Macaca mulatta; details: rhesus monkey, in vivo
[23] = AUCt in Beagle dog at 10 mg/kg, po; type: ADME, organism-based, Canis lupus familiaris; details: in vivo

COC[C@]12C[C@H]1[C@@](C)(c1cc(NC(=O)c3cnc(OCCC(F)(F)F)cn3)cc(F)c1F)N=C(N)S2
microsomal CLint at 1 µM [1]: 29 µL/min/mg | microsomal CLint at 1 µM [2]: 156 µL/min/mg

C#CCOc1cnc(C(=O)Nc2cc(F)c(F)c([C@@]3(C)N=C(N)S[C@@]4(CF)C[C@H]43)c2)cn1
microsomal CLint at 1 µM [1]: 76 µL/min/mg | microsomal CLint at 1 µM [2]: 87 µL/min/mg

NC1=N[C@@]2(CO1)c1cc(-c3cccnc3F)ccc1Oc1c2cc(C2=CCCOC2)nc1F
Cp(f) [3]: 38 nM | Cp(f) [4]: 88 nM | Cp(f) [5]: 328 nM

C[C@]1(c2cc(NC(=O)c3ccc(Cl)cn3)cc(F)c2F)N=C(N)S[C@@]2(C(N)=O)C[C@H]21
microsomal CLint at 1 µM [1]: < 14 µL/min/mg | microsomal CLint at 1 µM [2]: < 14 µL/min/mg

C#CCOc1cnc(C(=O)Nc2cc(F)c(F)c([C@@]3(C)N=C(N)S[C@@]4(COC)C[C@H]43)c2)cn1
bioavailability [6]: 48% | microsomal CLint at 0.5 µM [7]: 146 µL/min/mg | bioavailability [8]: 28% | microsomal CLint at 1 µM [1]: 41 µL/min/mg | half-life [9]: 1.5 h | AUCt [10]: 2.3 µM·h | clearance [11]: 21.7 mL/min/kg | clearance [12]: 15 mL/min/kg | half-life [13]: 2 h | Vd [14]: 1.7 L/kg | bioavailability [15]: 100% | microsomal CLint at 0.5 µM [16]: 62 µL/min/mg | clearance [17]: 35 mL/min/kg | Vd [18]: 3.2 L/kg | Vd [19]: 17 L/kg | Cp(f) [20]: 32 nM | AUCt [21]: 2.4 µM·h | half-life [22]: 8.3 h | microsomal CLint at 1 µM [2]: 84 µL/min/mg | AUCt [23]: 22 µM·h
